Experimental data taken from patent publication US8637507B2, “Bicyclic compounds as inhibitors of diacylglycerol acyltransferase” (Merck Sharp & Dohme Corp., priority 2009, dated 2014).

Biological target: human DGAT1 enzyme (Homo sapiens (Human), UniProt O75907)
Conditions: read-out: hDGAT1 IC50; human DGAT1 expressed in Sf9 insect cells, microsomes; 2 hours at room temperature
Experimental: The in vitro assay to identify DGAT1 inhibitors uses human DGAT1 enzyme expressed in Sf9 insect cells prepared as microsomes. The reaction was initiated by the addition of the combined substrates 1,2-dioleoyl-sn-glycerol and [^14C]-palmitoyl-CoA and incubated with test compounds and microsomal membranes for 2 hours at room temperature. The assay was stopped by adding 0.5 mg wheat germ agglutinin beads in assay buffer with 1% Brij-35 and 1% 3-cholamidopropyldimethyl-ammonio-1-propane sulfonate. Plates were sealed with TopSeal and incubated for 18 hours to allow the radioactive triglyceride product to come into proximity with the bead. Plates were read on a TopCount instrument.
Percent inhibition was calculated as the percent of (test compound inhibition minus non-specific binding) relative to (total binding minus non-specific binding). IC50 values were determined by curve fitting the data to a Sigmoidal dose-response in GraphPad Prism utilizing the following equation: Y=A+(B−A)/(1+10^((Log IC50−X))), where A and B are the bottom and top of the curve (highest and lowest inhibition), respectively, and X is the logarithm of concentration.

Chain of human DGAT1 enzyme (O75907 whole entry): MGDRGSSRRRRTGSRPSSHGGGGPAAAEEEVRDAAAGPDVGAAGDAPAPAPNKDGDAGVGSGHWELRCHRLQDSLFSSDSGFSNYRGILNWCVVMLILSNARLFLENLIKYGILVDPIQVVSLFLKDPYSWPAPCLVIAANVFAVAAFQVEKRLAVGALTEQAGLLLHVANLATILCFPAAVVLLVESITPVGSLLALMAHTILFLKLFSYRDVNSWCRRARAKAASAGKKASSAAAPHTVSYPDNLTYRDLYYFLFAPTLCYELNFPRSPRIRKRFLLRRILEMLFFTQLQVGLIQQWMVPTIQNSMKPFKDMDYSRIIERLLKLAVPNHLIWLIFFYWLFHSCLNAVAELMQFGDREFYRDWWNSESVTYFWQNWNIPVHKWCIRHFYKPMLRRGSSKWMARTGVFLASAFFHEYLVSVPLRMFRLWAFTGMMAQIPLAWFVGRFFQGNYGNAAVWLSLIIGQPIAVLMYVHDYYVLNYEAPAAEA

IC50: 0.275 µM
Structure (SMILES): Cc1cc(C(=O)Nc2ccccc2)c2ccc(-c3ccc(OCC(C)(C)C(=O)O)nc3)cc2n1 [Example B-17, 2,2-dimethyl-3-(5-(2-methyl-4-(phenylcarbamoyl)quinolin-7-yl)pyridin-2-yloxy)propanoic acid]
